Test results taken from patent publication US10596151B2, “Methods and pharmaceutical compositions for reducing arterial stiffness with a combination of a therapeutic agent blocking the angiotensin receptor and a therapeutic agent inhibiting the NEP enzyme” (Novartis AG, priority 2015, dated 2020).
Where “and” joins values, the source holds several entries; their conditions need not be identical. Equal values may be shown once. Marks after values point to notes of the source that are not given here.

Assays:
[1] = test system: elderly patients (≥60 years) with essential hypertension; test: […] study: central aortic pressures (CASP, CPP/CAPP, central DBP, central MAP) by SphygmoCor X-CEL; type: in vivo, human
Description: The term CAPP refers to central aortic PP. In the context of the present invention CAPP is measured with the SphygmoCor X-CEL System (AtCor Medical, Sydney, Australia) to non-invasively derive the ascending aortic pressure waveform from the brachial waveform using a validated generalised transfer function (GTF). A properly sized BP cuff is linked to a computer and software and the CASP, CAPP, augmentation pressure, and Alx are determined from the analysis of waveform by the system software. […]
The primary and secondary endpoints are changes from baseline in central aortic systolic pressure (CASP) and central aortic PP (CAPP) at week 12, respectively. Other secondary endpoints are the changes in CASP and CAPP at week 52. […] The primary variable will be analysed using a two-way analysis of covariance.
The SphygmoCor X-CEL System (AtCor Medical, Sydney, Australia) is being used to non-invasively derive the ascending aortic pressure waveform from the brachial waveform using a validated generalised transfer function (GTF).22 A properly sized BP cuff is linked to a computer and software and the CASP, CAPP, augmentation pressure, and Alx are determined from the analysis of waveform by the system software.
A sample size of 183 completers per group is targeted, which is calculated based on the primary efficacy variable, change from baseline in mean CASP at 12 weeks, assuming a standard deviation of 19 mm Hg. […] Assuming a 15% dropout rate, the total targeted sample size to be randomised is 432 patients (216 per group). The primary variable at the Week 12 endpoint will be analysed using a two-way analysis of covariance (ANCOVA), with treatment and region as factors and the baseline as a covariate. Mean CAPP at the Week 12 endpoint will be analysed using the same type of ANCOVA model used for the primary efficacy analysis. A two-sided significance at 0.05 level will be used for this analysis and a 95% confidence interval for the treatment difference will be provided.

[2] = test system: elderly patients (≥60 years) with essential hypertension; test: PARAMETER study: safety and tolerability assessments; conditions: 52-week study
From the text: The inclusion criteria in the study was designed to enroll patients which met the profile of elderly patients with systolic hypertension and a wide pulse pressure, a characteristic reflective of large artery (aortic) stiffness. […] The study enrolled patient from 5 Dec. 2012 to 8 Apr. 2015.
This was a 52-week study, involving 50 centers from 12 countries (across Europe, South America, Asia and the United States). […] After 12 weeks, patients with uncontrolled BP (msSBP>140 mmHg and/or mean sitting diastolic blood pressure [msDBP]>90 mmHg) were allowed the use of add-on antihypertensives (amlodipine [2.5-5.0 mg] and then hydrochlorothiazide [6.25-25.0 mg]) as needed, at an interval of 4 weeks up to Week 24.
Safety and tolerability assessments include regular monitoring and recording of all adverse events (AEs) and concomitant medications or significant non-drug therapies. Evaluations of routine blood chemistries, blood counts with white cell differential and urine analyses, physical examinations, electrocardiograms (ECGs), and monitoring of vital signs will be performed at regular intervals.

[3] = test system: elderly patients (≥60 years) with essential hypertension; test: […] study: 24-hour ambulatory brachial and central blood pressure (Mobil-O-Graph); type: in vivo, human
From the text: (§1) The study enrolled patient from 5 Dec. 2012 to 8 Apr. 2015.
The 24-hour maCAP and maPWA will be monitored using the oscillometric device, Mobil-0-Graph (IEM, Stolberg, Germany) with integrated ARC solver algorithms (Austrian Institute of Technology, Vienna, Austria). The traditional Mobil-O-Graph ambulatory blood pressure monitoring (ABPM) device has been available for more than a decade and through several product generations.24-27 The actual blood pressure measuring unit was validated according to the British Hypertension Society (BHS) and the European Society of Hypertension (ESH) recommendations.24,26 The method equipped with a GTF to derive aortic pressure waveforms28 is based on brachial readings acquired in the course of the conventional pressure measurement at diastolic level.
During the signal acquisition procedure, the received raw signals are separated into single waves and checked for their plausibility by means of extreme values and corresponding wavelengths using a cross-correlation approach. Poor waveforms are removed from further processing. After applying the GTF to each single waveform, the procedure is repeated.
With respect to legal issues, the Mobil-O-Graph maPWA monitor with integrated ARC solver algorithms holds approvals from CE, FDA, and JPAL (amongst others).

[4] = test system: elderly patients (≥60 years) with essential hypertension; test: […] study: mean sitting (brachial) blood pressure and pulse pressure; type: in vivo, human
From the text: as §1
Superiority testing is also planned for the key secondary efficacy assessment, i.e. the reduction in mean central aortic PP (CAPP) after 12 weeks of treatment, and other secondary efficacy assessments such as mean CASP and CAPP after 52 weeks of treatment. Mean aPWV, msSBP, msDBP, msPP, mean ambulatory (ma) BP, maPP, and MAP will also be measured after 12 and 52 weeks of treatment.

[5] = LCZ696 regimen vs olmesartan regimen, 52 weeks
[6] = Week 52 endpoint (LOCF), FAS, add-on amlodipine/HCTZ allowed
[7] = LCZ696 regimen vs olmesartan regimen, 12 weeks, P < 0.001

SMILES: CCCCC(=O)N(Cc1ccc(-c2ccccc2-c2nn[n-]n2)cc1)C(C(=O)[O-])C(C)C.CCCCC(=O)N(Cc1ccc(-c2ccccc2-c2nn[n-]n2)cc1)C(C(=O)[O-])C(C)C.CCOC(=O)C(C)CC(Cc1ccc(-c2ccccc2)cc1)NC(=O)CCC(=O)[O-].CCOC(=O)C(C)CC(Cc1ccc(-c2ccccc2)cc1)NC(=O)CCC(=O)[O-].O.O.O.O.O.[Na+].[Na+].[Na+].[Na+].[Na+].[Na+] [LCZ696, trisodium [3-((1S,3R)-1-biphenyl-4-ylmethyl-3-ethoxycarbonyl-1-butylcarbamoyl) propionate-(S)-3′-methyl-2′-(pentanoyl{2″-(tetrazol-5-ylate)biphenyl-4′-ylmethyl}amino)butyrate]hemipentahydrate]
- lowering of CASP and CPP vs olmesartan 40 mg/day ([1]; LCZ696 400 mg/day, after 12 weeks of monotherapy): to a greater extent than olmesartan
- Between-treatment difference, mscDBP, 12 weeks ([1]; LCZ696 regimen vs olmesartan regimen, 12 weeks): −1.1 (0.90) mmHg
- Between-treatment difference, mscDBP, 52 weeks [1, 5]: −0.7 (0.86) mmHg
- LSM difference in change from baseline (SE), mean CPP, LCZ696 vs Olmesartan ([1]; Week 12 endpoint, FAS, ANCOVA, p=0.012): −2.45 mmHg and −2.45 (0.96) mmHg
- LSM change from baseline (SE) in mean CPP at Week 12 endpoint ([1]; Week 12 endpoint, FAS, monotherapy): −6.41 mmHg and −6.41 (0.69) mmHg
- LSM change from baseline (SE) in mean CASP at Week 12 endpoint ([1]; Week 12 endpoint, FAS, monotherapy, LCZ696 400 mg/day, olmesartan 40 mg/day): −12.57 mmHg and −12.57 (1.01) mmHg
- LSM change from baseline (SE) in mean CASP at Week 52 endpoint [1, 6]: −16.18 mmHg and −16.18 (0.96) mmHg
- LSM change from baseline (SE) in mean CPP at Week 52 endpoint [1, 6]: −7.16 mmHg and −7.16 (0.69) mmHg
- LSM difference in change from baseline (SE), mean CASP, LCZ696 vs Olmesartan ([1]; Week 52 endpoint (LOCF), FAS, p=0.271): −1.49 (1.35) mmHg
- LSM difference in change from baseline (SE), mean CPP, LCZ696 vs Olmesartan ([1]; Week 52 endpoint (LOCF), FAS, p=0.598): −0.51 (0.97) mmHg
- Change from baseline to 12 weeks, mscDBP ([1]; mean sitting central diastolic BP, 12 weeks): −6.1 mmHg
- Change from baseline to 52 weeks, mscDBP ([1]; mean sitting central diastolic BP, 52 weeks): −8.8 mmHg
- Change from baseline to 12 weeks, mscMAP ([1]; mean sitting central mean arterial pressure, 12 weeks, mean): −8.0 mmHg
- Change from baseline to 52 weeks, mscMAP ([1]; mean sitting central mean arterial pressure, 52 weeks, mean): −9.6 mmHg
- percentage of patients who discontinued the study [2]: 19.7%
- percentage of patients who discontinued the study due to an AE [2]: 6.6%
- percentage of patients with AEs [2]: 57.6%
- percentage of patients with SAEs [2]: 7.0%
- tolerability of the regimen [2]: well tolerated
- Between-treatment difference, maDBP, 12 weeks [3, 7]: −2.0 (0.51)* mmHg
- Between-treatment difference, maPP, 12 weeks [3, 7]: −2.1 (0.49)* mmHg
- Between-treatment difference, maSBP, 12 weeks [3, 7]: −4.1 (0.87)* mmHg
- Between-treatment difference, macSBP, 12 weeks [3, 7]: −3.4 (0.84)* mmHg
- Between-treatment difference, maDBP, 52 weeks [3, 5]: −0.4 (0.48) mmHg
- Between-treatment difference, maPP, 52 weeks [3, 5]: 0.6 (0.50) mmHg
- Between-treatment difference, maSBP, 52 weeks [3, 5]: 0.2 (0.82) mmHg
- Between-treatment difference, macSBP, 52 weeks [3, 5]: 0.6 (0.79) mmHg
- 24-hour ambulatory SBP compared to olmesartan ([3]; after 12-week monotherapy): lowered 24-hour ambulatory SBP compared to olmesartan
- Change from baseline to 12 weeks, macDBP ([3]; mean ambulatory central diastolic BP, 12 weeks, mean): −7.5 mmHg
- Change from baseline to 52 weeks, macDBP ([3]; mean ambulatory central diastolic BP, 52 weeks, mean): −9.0 mmHg
- Change from baseline to 12 weeks, macMAP ([3]; mean ambulatory central mean arterial pressure, 12 weeks, mean): −9.0 mmHg
- Change from baseline to 52 weeks, macMAP ([3]; mean ambulatory central mean arterial pressure, 52 weeks, mean): −10.33 mmHg
- Change from baseline to 12 weeks, macPP ([3]; mean ambulatory central pulse pressure, 12 weeks, mean): −4.4 mmHg
- Change from baseline to 52 weeks, macPP ([3]; mean ambulatory central pulse pressure, 52 weeks, mean): −4.1 mmHg
- Change from baseline to 12 weeks, macSBP ([3]; mean ambulatory central systolic BP, 12 weeks): −12.1 mmHg
- Change from baseline to 52 weeks, macSBP ([3]; mean ambulatory central systolic BP, 52 weeks): −13.0 mmHg
- Change from baseline to 12 weeks, maDBP ([3]; mean ambulatory diastolic BP, 12 weeks): −7.4 mmHg
- Change from baseline to 52 weeks, maDBP ([3]; mean ambulatory diastolic BP, 52 weeks): −8.8 mmHg
- Change from baseline to 12 weeks, maMAP ([3]; mean ambulatory mean arterial pressure, 12 weeks, mean): −10.0 mmHg
- Change from baseline to 52 weeks, maMAP ([3]; mean ambulatory mean arterial pressure, 52 weeks, mean): −11.2 mmHg
- Change from baseline to 12 weeks, maPP ([3]; mean ambulatory pulse pressure, 12 weeks): −5.8 mmHg
- Change from baseline to 52 weeks, maPP ([3]; mean ambulatory pulse pressure, 52 weeks): −5.3 mmHg
- Change from baseline to 12 weeks, maSBP ([3]; mean ambulatory systolic BP, 12 weeks): −13.2 mmHg
- Change from baseline to 52 weeks, maSBP ([3]; mean ambulatory systolic BP, 52 weeks): −14.1 mmHg
- Between-treatment difference, msMAP, 12 weeks [4, 7]: −3.6 (0.95)* mmHg
- Between-treatment difference, msMAP, 52 weeks [4, 5]: −1.5 (0.89) mmHg
- Change from baseline to 12 weeks, msDBP ([4]; mean sitting diastolic BP, 12 weeks, mean): −5.3 mmHg
- Change from baseline to 52 weeks, msDBP ([4]; mean sitting diastolic BP, 52 weeks, mean): −8.1 mmHg
- Change from baseline to 12 weeks, msMAP ([4]; mean sitting mean arterial pressure, 12 weeks): −12.2 mmHg
- Change from baseline to 52 weeks, msMAP ([4]; mean sitting mean arterial pressure, 52 weeks): −13.9 mmHg
- Change from baseline to 12 weeks, msPP ([4]; mean sitting pulse pressure, 12 weeks, mean): −8.0 mmHg
- Change from baseline to 52 weeks, msPP ([4]; mean sitting pulse pressure, 52 weeks, mean): −9.1 mmHg
- Change from baseline to 12 weeks, msSBP ([4]; mean sitting systolic BP, 12 weeks, mean): −13.3 mmHg
- Change from baseline to 52 weeks, msSBP ([4]; mean sitting systolic BP, 52 weeks, mean): −17.2 mmHg
